Results taken from PubChem BioAssay AID248 (DTP/NCI, 2004).
“And” between values parts separate entries of the source, which are not always exact repeats. Equal values may be shown once. Toxic doses and inconclusive results are not listed.

Tested on: L1210 leukemia ip in BDF1 mice, survival T/C
Experiment: NCI In Vivo Anticancer Drug Screen. Data for tumor model L1210 Leukemia (intraperitoneal) in B6D2F1 (BDF1) mice
Settings: endpoint: mean survival time, higher = longer survival
Procedure, shortened: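 Mice bearing the transplanted tumor received compound or vehicle. Survival of the treated group was divided by that of the vehicle-treated control group to give the ratio.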

[1] = dose: 12.5 mg/kg/injection, schedule: Q04DX003 (ip), vehicle: saline
[2] = dose: 25.0 mg/kg/injection, schedule: Q04DX003 (ip), vehicle: saline
[3] = dose: 50.0 mg/kg/injection, schedule: Q04DX003 (ip), vehicle: saline
[4] = dose: 100.0 mg/kg/injection, schedule: Q01DX009 (ip), vehicle: saline with Tween-80
[5] = dose: 200.0 mg/kg/injection, schedule: Q01DX009 (ip), vehicle: saline with Tween-80
[6] = dose: 400.0 mg/kg/injection, schedule: Q01DX009 (ip), vehicle: saline with Tween-80
[7] = dose: 100.0 mg/kg/injection, schedule: Q04DX003 (ip), vehicle: Klucel (hydroxypropylcellulose) (HPC)
[8] = dose: 200.0 mg/kg/injection, schedule: Q04DX003 (ip), vehicle: Klucel (hydroxypropylcellulose) (HPC)
[9] = dose: 400.0 mg/kg/injection, schedule: Q04DX003 (ip), vehicle: Klucel (hydroxypropylcellulose) (HPC)
[10] = dose: 100.0 mg/kg/injection, schedule: Q01DX009 (ip), vehicle: Klucel (hydroxypropylcellulose) (HPC)
[11] = dose: 200.0 mg/kg/injection, schedule: Q01DX009 (ip), vehicle: Klucel (hydroxypropylcellulose) (HPC)
[12] = dose: 100.0 mg/kg/injection, schedule: Q04DX003 (ip), vehicle: saline with Tween-80
[13] = dose: 200.0 mg/kg/injection, schedule: Q04DX003 (ip), vehicle: saline with Tween-80
[14] = dose: 400.0 mg/kg/injection, schedule: Q04DX003 (ip), vehicle: saline with Tween-80
[15] = dose: 100.0 mg/kg/injection, schedule: Q01DX001 (ip), vehicle: saline
[16] = dose: 100.0 mg/kg/injection, schedule: Q01DX009 (ip), vehicle: saline
[17] = dose: 100.0 mg/kg/injection, schedule: Q04DX003 (ip), vehicle: saline
[18] = dose: 200.0 mg/kg/injection, schedule: Q01DX001 (ip), vehicle: saline
[19] = dose: 200.0 mg/kg/injection, schedule: Q01DX009 (ip), vehicle: saline
[20] = dose: 200.0 mg/kg/injection, schedule: Q04DX003 (ip), vehicle: saline
[21] = dose: 400.0 mg/kg/injection, schedule: Q01DX001 (ip), vehicle: saline
[22] = dose: 400.0 mg/kg/injection, schedule: Q01DX009 (ip), vehicle: saline
[23] = dose: 400.0 mg/kg/injection, schedule: Q04DX003 (ip), vehicle: saline

With `O=c1ccc2ccccc2n1Cc1ccc2ccccc2n1` the T/C (dose: 12.5 mg/kg/injection, schedule: Q01DX001 (ip), vehicle: acetone) was 100 % of control, the T/C [1] was 96 % of control and the T/C (dose: 25.0 mg/kg/injection, schedule: Q01DX001 (ip), vehicle: acetone) was 92 % of control. The T/C [2] was 91 % of control, the T/C (dose: 50.0 mg/kg/injection, schedule: Q01DX001 (ip), vehicle: acetone) was 95 % of control and the T/C [3] was 96 % of control. The T/C (dose: 75.0 mg/kg/injection, schedule: Q04DX003 (ip), vehicle: saline) was 95 % of control, the T/C (dose: 100.0 mg/kg/injection, schedule: Q01DX001 (ip), vehicle: other) was 97 % of control and the T/C [4] was 104 % of control. The T/C (dose: 100.0 mg/kg/injection, schedule: Q04DX003 (ip), vehicle: other) was 109 % of control, the T/C (dose: 115.0 mg/kg/injection, schedule: Q04DX003 (ip), vehicle: saline) was 90 % of control and the T/C (dose: 200.0 mg/kg/injection, schedule: Q01DX001 (ip), vehicle: other) was 100 % of control. For the same molecule, the T/C [5] was 95 % of control, the T/C (dose: 200.0 mg/kg/injection, schedule: Q04DX003 (ip), vehicle: other) was 104 % of control and the T/C (dose: 400.0 mg/kg/injection, schedule: Q01DX001 (ip), vehicle: other) was 94 % of control. The T/C [6] was 101 % of control and the T/C (dose: 400.0 mg/kg/injection, schedule: Q04DX003 (ip), vehicle: other) was 104 % of control.
For `CCCCn1cnc2c(=O)[nH]cnc21`, the T/C (dose: 66.12 mg/kg/injection, schedule: Q01DX Z (ip), vehicle: carboxymethylcellulose (CMC)) was 93 % of control, the T/C (dose: 132.25 mg/kg/injection, schedule: Q01DX Z (ip), vehicle: carboxymethylcellulose (CMC)) was 94 % of control and the T/C (dose: 132.25 mg/kg/injection, schedule: Q01DX Z (oral), vehicle: carboxymethylcellulose (CMC)) was 100 % of control. For the same molecule, the T/C (dose: 264.5 mg/kg/injection, schedule: Q01DX Z (ip), vehicle: carboxymethylcellulose (CMC)) was 90 % of control, the T/C (dose: 264.5 mg/kg/injection, schedule: Q01DX Z (oral), vehicle: carboxymethylcellulose (CMC)) was 96 % of control and the T/C (dose: 529.0 mg/kg/injection, schedule: Q01DX Z (oral), vehicle: carboxymethylcellulose (CMC)) was 94 % of control.
`Cc1ncc(C(O)c2ccc(Cl)cc2)n1Cc1ccccc1` (centres undefined) was tested, and the T/C [7] was 100 % of control, the T/C [8] was 94 % of control and the T/C [9] was 104 % of control.
With `O=c1cc(CO)occ1O.O=c1cc(CO)occ1O.[O]=[V]` the T/C (dose: 4.0 mg/kg/injection, schedule: Q01DX015 (ip), vehicle: carboxymethylcellulose (CMC)) was 101 % of control, the T/C (dose: 8.0 mg/kg/injection, schedule: Q01DX015 (ip), vehicle: carboxymethylcellulose (CMC)) was 105 % of control and the T/C (dose: 12.5 mg/kg/injection, schedule: Q01DX009 (ip), vehicle: saline) was 87 % of control. The T/C [1] was 92 % of control, the T/C (dose: 16.0 mg/kg/injection, schedule: Q01DX015 (ip), vehicle: carboxymethylcellulose (CMC)) was 106 % of control and the T/C (dose: 25.0 mg/kg/injection, schedule: Q01DX009 (ip), vehicle: saline) was 92 % of control. The T/C [2] was 91 % of control and the T/C [3] was 102 % of control.
For `O=C1CCCc2cc3c(cc21)CCCC3`, the T/C [10] was 96 % of control, the T/C [7] was 109 % of control and the T/C [11] was 97 % of control. The T/C [8] was 107 % of control and the T/C [9] was 102 % of control.
For `O=C(O)CS(=O)(=O)CC(=O)O`, the T/C [12] was 98 % of control and the T/C [13] was 93 % of control.
With `CC(=O)Nc1cccc(NC(C)=O)n1` the T/C [12] was 94 % of control, the T/C [13] was 104 % of control and the T/C [14] was 100 % of control.
`CNC(=N)c1ccc(NC(=N)c2ccc(NC(=O)Nc3ccc(NC(=O)Nc4ccc(C(=N)Nc5ccc(C(=N)NC)cc5)cc4)cc3)cc2)cc1` was tested, and the T/C (dose: 0.5 mg/kg/injection, schedule: Q01DX015 (ip), vehicle: water) was 103 % of control, the T/C (dose: 1.0 mg/kg/injection, schedule: Q01DX015 (ip), vehicle: water) was 116 % of control and the T/C (dose: 2.0 mg/kg/injection, schedule: Q01DX015 (ip), vehicle: water) was 152 % of control. For the same molecule, the T/C (dose: 5.0 mg/kg/injection, schedule: Q01DX Z (ip), vehicle: water) was 156 % of control, the T/C (dose: 7.5 mg/kg/injection, schedule: Q01DX Z (ip), vehicle: water) was 180 % of control and the T/C (dose: 10.0 mg/kg/injection, schedule: Q01DX Z (ip), vehicle: water) was 150 % of control. The T/C (dose: 15.0 mg/kg/injection, schedule: Q01DX Z (ip), vehicle: water) was 161 % of control, the T/C (dose: 20.0 mg/kg/injection, schedule: Q01DX Z (ip), vehicle: water) was 104 % of control and the T/C (dose: 30.0 mg/kg/injection, schedule: Q01DX Z (ip), vehicle: water) was 87 % of control. For the same molecule, the T/C (dose: 35.7 mg/kg/injection, schedule: Q01DX Z (ip), vehicle: water) was 101 % of control.
With `CC(=O)CC(=O)Nc1ccc(C(=O)O)c(O)c1` the T/C [10] was 93 % of control, the T/C [11] was 87 % of control and the T/C (dose: 400.0 mg/kg/injection, schedule: Q01DX009 (ip), vehicle: Klucel (hydroxypropylcellulose) (HPC)) was 93 % of control.
`CC(=O)NC(C)C(=O)O` (centres undefined) was tested, and the T/C [15] was 90 % of control and 92 % of control, the T/C [16] was 100 % of control and 111 % of control and 103 % of control and the T/C (dose: 100.0 mg/kg/injection, schedule: Q04DX002 (ip), vehicle: saline) was 96 % of control and 111 % of control and 92 % of control. For the same molecule, the T/C [17] was 89 % of control and 103 % of control, the T/C [18] was 106 % of control and 93 % of control and the T/C [19] was 93 % of control and 92 % of control and 97 % of control. The T/C (dose: 200.0 mg/kg/injection, schedule: Q04DX002 (ip), vehicle: saline) was 105 % of control and 93 % of control and 94 % of control, the T/C [20] was 90 % of control and 98 % of control and the T/C [21] was 94 % of control and 93 % of control. For the same molecule, the T/C [22] was 90 % of control and 92 % of control and 100 % of control, the T/C (dose: 400.0 mg/kg/injection, schedule: Q04DX002 (ip), vehicle: saline) was 96 % of control and 94 % of control and 101 % of control and the T/C [23] was 94 % of control and 103 % of control.
For `Cc1nnc(C(N)=O)c(=O)[nH]1`, the T/C (dose: 100.0 mg/kg/injection, schedule: Q01DX001 (ip), vehicle: Klucel (hydroxypropylcellulose) (HPC)) was 109 % of control, the T/C (dose: 200.0 mg/kg/injection, schedule: Q01DX001 (ip), vehicle: Klucel (hydroxypropylcellulose) (HPC)) was 120 % of control and the T/C (dose: 400.0 mg/kg/injection, schedule: Q01DX001 (ip), vehicle: Klucel (hydroxypropylcellulose) (HPC)) was 97 % of control.
In the case of `O=C(Nc1ccccc1F)Nc1cccc2ccc(O)cc12`, the T/C (dose: 100.0 mg/kg/injection, schedule: Q01DX009 (ip), vehicle: alcohol) is reported as 95 % of control, the T/C (dose: 200.0 mg/kg/injection, schedule: Q01DX009 (ip), vehicle: alcohol) is reported as 98 % of control and the T/C (dose: 400.0 mg/kg/injection, schedule: Q01DX009 (ip), vehicle: alcohol) is reported as 93 % of control.
With `[O-][N+](=C(c1ccccc1)c1ccccc1)c1ccccc1` the T/C [12] was 101 % of control, the T/C [13] was 93 % of control and the T/C [14] was 90 % of control.
In the case of `NCCNCCNCCN`, the T/C (dose: 50.0 mg/kg/injection, schedule: Q01DX001 (ip), vehicle: saline) is reported as 95 % of control, the T/C [15] is reported as 95 % of control and the T/C [16] is reported as 93 % of control. For the same molecule, the T/C [17] was 102 % of control, the T/C [18] was 98 % of control and the T/C [19] was 93 % of control. The T/C [20] was 105 % of control, the T/C [21] was 101 % of control and the T/C [22] was 109 % of control. The T/C [23] was 94 % of control.
With `Cc1ccc(S(=O)(=O)NC(c2ccccc2)(c2ccccc2)c2ccccc2)cc1` the T/C [4] was 96 % of control, the T/C (dose: 100.0 mg/kg/injection, schedule: Q04DX003 (ip), vehicle: acetone) was 96 % of control and the T/C [5] was 88 % of control. The T/C (dose: 200.0 mg/kg/injection, schedule: Q04DX003 (ip), vehicle: acetone) was 95 % of control, the T/C [6] was 93 % of control and the T/C (dose: 400.0 mg/kg/injection, schedule: Q04DX003 (ip), vehicle: acetone) was 96 % of control.
